The values that follow come from US20240131028A1, “CHEMOVACCINATION AGAINST PLASMODIUM INFECTION WITH SELECTIVE PLASMEPSIN X INHIBITORS” (Merck Sharp & Dohme LLC, priority 2021, published 2024).

Structures are written as SMILES.

The test system of one assay is ring stage parasites (Pf). The experiment in a line: Parasite lactate dehydrogenase (LDH) growth assay (Parasite Assay, PfLDH Assay). In kind it is cell-based, P. falciparum. The following applies: Plasmodium falciparum, 72 h, Table 3; 72 hours growth, LDH readout; read-out: EC50.
Consider `CC1(C)CC(=O)N([C@H](c2cncc(Cl)c2)[C@H]2C[C@@H]2C(=O)N[C@H]2C[C@H](C(F)(F)F)Oc3ccccc32)C(=N)N1` [Example 60A], for which the EC50 (usually the midpoint of the concentration-response curve) is 0.5 nM.

Turning to `CC1(C)CC(=O)N([C@@H](c2cncc(Cl)c2)[C@H]2C[C@@H]2C(=O)N[C@H]2C[C@H](C(F)(F)F)Oc3ccccc32)C(=N)N1` [Example 60B], the EC50 was 100 nM.

Consider `CC[C@]1(C)CC(=O)N([C@H](CCOC)[C@H]2C[C@@H]2C(=O)N[C@@H]2c3ccccc3OC(C)(C)[C@H]2O)C(=N)N1` [Example 61], for which the EC50 was found to be 6.9 nM.

In the case of `CC[C@]1(C)CC(=O)N([C@@H](CCOC)[C@H]2C[C@@H]2C(=O)N[C@H]2C[C@H](C(F)(F)F)Oc3ccccc32)C(=N)N1` [Example 62A], the EC50 was determined as 31 nM.

For `CC[C@]1(C)CC(=O)N([C@H](CCOC)[C@H]2C[C@@H]2C(=O)N[C@H]2C[C@H](C(F)(F)F)Oc3ccccc32)C(=N)N1` [Example 62B], the half-maximal effective concentration (EC50) is 0.8 nM.

Turning to `CC[C@]1(C)CC(=O)N([C@H](c2cccnc2)[C@H]2C[C@@H]2C(=O)N[C@H]2CC(C)(C)Oc3ccccc32)C(=N)N1` [Example 63], the EC50 amounted to 1.2 nM.

Consider `CC[C@]1(C)CC(=O)N([C@H](CCOC)[C@H]2C[C@@H]2C(=O)N[C@H]2CC(C)(C)Oc3ccccc32)C(=N)N1` [Example 64A], for which the EC50 came to 2.3 nM.

In the case of `CC[C@]1(C)CC(=O)N([C@@H](CCOC)[C@H]2C[C@@H]2C(=O)N[C@H]2CC(C)(C)Oc3ccccc32)C(=N)N1` [Example 64B], the EC50 was 195 nM.

In the case of `CC[C@]1(C)CC(=O)N([C@H](c2cncc(F)c2)[C@H]2C[C@@H]2C(=O)N[C@@H]2c3ccccc3OC(C)(C)[C@H]2O)C(=N)N1` [Example 66], the EC50 stood at 2.6 nM.

With `CC[C@@]1(C)CC(=O)N(C(c2cncc(F)c2)[C@H]2C[C@@H]2C(=O)N[C@H]2CC(C)(C)Oc3ccccc32)C(=N)N1` (some centres unmarked) [Example 67A], the EC50 came to 0.9 nM.

In the case of `CC[C@]1(C)CC(=O)N([C@H](c2cncc(F)c2)[C@H]2C[C@@H]2C(=O)N[C@H]2C[C@H](C(F)(F)F)Oc3ccccc32)C(=N)N1` [Example 68], the EC50 was 0.3 nM.

With `COCC[C@H]([C@H]1C[C@@H]1C(=O)N[C@@H]1CC(C)(C)Oc2cc(OC)ccc21)N1C(=N)NC(C)(C)CC1=O` [Example 70A], the concentration giving a half-maximal response (EC50) came out at 77 nM.

Regarding `COCC[C@H]([C@H]1C[C@@H]1C(=O)N[C@H]1CC(C)(C)Oc2cc(OC)ccc21)N1C(=N)NC(C)(C)CC1=O` [Example 70B], the EC50 came to 19 nM.

With `CC1(C)CC(=O)N(C[C@H]2C[C@@H]2C(=O)N[C@H]2CC(C)(C)Oc3ccc(F)cc32)C(=N)N1` [Example 71], the EC50 worked out at 125 nM.

For `COCC[C@H]([C@H]1C[C@@H]1C(=O)N[C@@H]1CC(C)(C)Oc2ccc(F)cc21)N1C(=N)NC(C)(C)CC1=O` [Example 72A], the EC50 was 11 nM.

As to `COCC[C@H]([C@H]1C[C@@H]1C(=O)N[C@H]1CC(C)(C)Oc2ccc(F)cc21)N1C(=N)NC(C)(C)CC1=O` [Example 72B], the EC50 is 2.5 nM.

Turning to `COc1cccc2c1[C@@H](NC(=O)[C@H]1C[C@@H]1CN1C(=N)NC(C)(C)CC1=O)CC(C)(C)O2` [Example 73], the EC50 was found to be 192 nM.

Regarding `COCC[C@H]([C@H]1C[C@@H]1C(=O)N[C@@H]1CC(C)(C)Oc2cccc(OC)c21)N1C(=N)NC(C)(C)CC1=O` [Example 74A], the EC50 worked out at 33 nM.

For the molecule `COCC[C@H]([C@H]1C[C@@H]1C(=O)N[C@H]1CC(C)(C)Oc2cccc(OC)c21)N1C(=N)NC(C)(C)CC1=O` [Example 74B], the EC50 amounted to 3.1 nM.

As for `CCC1(C)CC(NC(=O)[C@H]2C[C@@H]2[C@@H](CCOC)N2C(=N)NC(C)(C)CC2=O)c2ccccc2O1` (some centres unmarked) [Example 75A], the EC50 was 8.2 nM.

Take `COCC[C@H]([C@H]1C[C@@H]1C(=O)NC1CC(C)(C)Oc2cc(F)ccc21)N1C(=N)NC(C)(C)CC1=O` (some centres unmarked) [Example 76A]: the EC50 turned out to be 17 nM.

As for `CC1(C)CC(=O)N([C@H](c2cccnc2)[C@H]2C[C@@H]2C(=O)NC2CC(C)(C)Oc3cc(F)ccc32)C(=N)N1` (some centres unmarked) [Example 77A], the EC50 is 1.7 nM.

In the case of `CCC1(C)C[C@H](NC(=O)[C@H]2C[C@@H]2CN2C(=N)NC(C)(C)CC2=O)c2ccccc2O1` (some centres unmarked) [Example 78], the EC50 was 300 nM.

For the molecule `CC(C)C1(C)CC(NC(=O)[C@H]2C[C@@H]2CN2C(=N)NC(C)(C)CC2=O)c2ccccc2O1` (some centres unmarked) [Example 79A], the half-maximal effective concentration (EC50) came to 255 nM.

With `COCC[C@H]([C@H]1C[C@@H]1C(=O)N[C@H]1CC(C)(C)Oc2cc(C)ccc21)N1C(=N)NC(C)(C)CC1=O` [Example 83A], the EC50 was found to be 6.6 nM.

For the molecule `COCC[C@H]([C@H]1C[C@@H]1C(=O)N[C@@H]1CC(C)(C)Oc2cc(C)ccc21)N1C(=N)NC(C)(C)CC1=O` [Example 83B], the EC50 amounted to 26 nM.

On to `Cc1ccc2c(c1)OC(C)(C)C[C@@H]2NC(=O)[C@H]1C[C@@H]1CN1C(=N)NC(C)(C)CC1=O` [Example 84], for which the EC50 is 289 nM.

For the molecule `Cc1ccc2c(c1)OC(C)(C)C[C@@H]2NC(=O)[C@H]1C[C@@H]1[C@@H](c1cccnc1)N1C(=N)NC(C)(C)CC1=O` [Example 85A], the EC50 was determined as 2.4 nM.

Still in this assay, the particulars now being: Table 3; 72 hours growth, LDH readout; read-out: EC50.
Take `COc1ccc2c(c1)OC(C)(C)C[C@@H]2NC(=O)[C@H]1C[C@@H]1[C@H](c1cccnc1)N1C(=N)NC(C)(C)CC1=O` [Example 65A]: the EC50 stood at 2.8 nM.

Regarding `COc1ccc2c(c1)OC(C)(C)C[C@@H]2NC(=O)[C@H]1C[C@@H]1[C@H](c1cccnc1)N1C(=N)NC(C)(C)CC1=O` [Example 65B], the EC50 was found to be 8 nM.

Turning to `CC[C@@]1(C)CC(=O)N(C(c2cncc(F)c2)[C@H]2C[C@@H]2C(=O)N[C@H]2CC(C)(C)Oc3ccccc32)C(=N)N1` (some centres unmarked) [Example 67B], the EC50 is 0.6 nM.

Consider `CC[C@@]1(C)CC(=O)N(C(c2cncc(F)c2)[C@H]2C[C@@H]2C(=O)N[C@H]2CC(C)(C)Oc3ccc(F)cc32)C(=N)N1` (some centres unmarked) [Example 69A], for which the 50% effective concentration (EC50) was 1 nM.

As to `CC[C@@]1(C)CC(=O)N(C(c2cncc(F)c2)[C@H]2C[C@@H]2C(=O)N[C@H]2CC(C)(C)Oc3ccc(F)cc32)C(=N)N1` (some centres unmarked) [Example 69B], the EC50 was found to be 1.9 nM.

Consider `CC[C@@]1(C)CC(=O)N(C(c2cncc(F)c2)[C@H]2C[C@@H]2C(=O)N[C@H]2CC(C)(C)Oc3ccc(F)cc32)C(=N)N1` (some centres unmarked) [Example 69C], for which the EC50 is 0.8 nM.

For the molecule `CC[C@@]1(C)CC(=O)N(C(c2cncc(F)c2)[C@H]2C[C@@H]2C(=O)N[C@H]2CC(C)(C)Oc3ccc(F)cc32)C(=N)N1` (some centres unmarked) [Example 69D], the EC50 was determined as 0.3 nM.

As to `CC[C@@]1(C)CC(=O)N(C(c2cncc(F)c2)[C@H]2C[C@@H]2C(=O)N[C@H]2CC(C)(C)Oc3ccc(F)cc32)C(=N)N1` (some centres unmarked) [Example 69E], the EC50 turned out to be 300 nM.

For `COCC[C@H]([C@H]1C[C@@H]1C(=O)NC1CC(C)(C)Oc2cc(F)ccc21)N1C(=N)NC(C)(C)CC1=O` (some centres unmarked) [Example 76B], the EC50 is 15 nM.

Turning to `CC1(C)CC(=O)N([C@H](c2cccnc2)[C@H]2C[C@@H]2C(=O)NC2CC(C)(C)Oc3cc(F)ccc32)C(=N)N1` (some centres unmarked) [Example 77B], the EC50 came to 2.3 nM.
